What was measured:
[1] = Anomeric stability in D2O solution followed by 1H-NMR; format: physicochemical; details: 10 mg in 700 μL D2O, room temperature; 1H-NMR recorded immediately and a day later
Description: 10 mg pure α-lactosamine hydrochloride was dissolved in 700 μL D2O, then 1H-NMR spectrum was recorded immediately. A second 1H-NMR spectra was recorded a day later, by which time the clean substance had already anomerized. On first spectrum (FIG. 3, above) at 5.26 ppm the H-1 and at 4.29 ppm the H-1′ can be seen. On the second spectrum (FIG. 3, below) next to the alpha anomer already the beta appears. At 4.78 ppm H-1-beta and at 2.85 ppm H-2-beta can be seen.

melting point | SMILES | anomerization of the pure alpha anomer in solution (appearance of beta anomer) [1]
– | Cl.N[C@@H]1[C@@H](O)[C@H](O[C@@H]2O[C@H](CO)[C@H](O)[C@H](O)[C@H]2O)[C@@H](CO)O[C@@H]1O [α-lactosamine hydrochloride] | anomerizes at room temperature within one day
174 °C | Cl.N[C@@H]1[C@@H](O)[C@H](O[C@@H]2O[C@H](CO)[C@H](O)[C@H](O)[C@H]2O)[C@@H](CO)O[C@@H]1O (hydrate or solvate) [α-lactosamine hydrochloride] | –

From patent publication US20140378679A1, “CRYSTALLINE CARBOHYDRATE DERIVATIVE” (GLYCOM A/S, priority 2008, published 2014)
